Data on two sequences can be found in patent publication US11077199B2, “Albumin binding peptide conjugates and methods thereof” (Massachusetts Institute of Technology, priority 2017, dated 2021).

Experiment [1] concerns the target T1, MHC (H2-Db) (Mus musculus, UniProt P01899).
T1 sequence (P01899 25-362): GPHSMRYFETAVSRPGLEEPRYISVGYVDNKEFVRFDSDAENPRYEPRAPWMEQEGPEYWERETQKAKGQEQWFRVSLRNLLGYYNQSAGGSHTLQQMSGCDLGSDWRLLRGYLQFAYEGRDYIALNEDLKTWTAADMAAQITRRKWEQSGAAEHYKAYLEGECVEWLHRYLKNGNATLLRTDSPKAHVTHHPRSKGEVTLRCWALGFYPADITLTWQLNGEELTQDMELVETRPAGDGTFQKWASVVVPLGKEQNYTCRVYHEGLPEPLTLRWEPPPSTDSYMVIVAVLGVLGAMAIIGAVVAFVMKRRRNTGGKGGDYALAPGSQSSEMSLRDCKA
T1 sequence (P01887 21-119 partner): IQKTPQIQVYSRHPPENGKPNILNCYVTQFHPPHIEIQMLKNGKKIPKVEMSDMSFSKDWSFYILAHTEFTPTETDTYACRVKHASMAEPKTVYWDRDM
Particulars: H2-Db epitope; van Stipdonk et al. 2009; cited from earlier work.

In experiment [2] the test system is CD44hi H-2Db gp100 tetramer+ CD8+ T cells. Briefly: Immunization with ABP-antigen constructs, tetramer staining of peripheral blood. The format is in vivo, C57BL6/J mice. As to conditions: for percentage CD44hi tetramer+ of total live CD8+ T cells: 5 nmol with 25 ug c-di-GMP adjuvant, prime day 0, boost day 14, peripheral blood day 21, mean response. From the text:
To test whether these albumin-binding peptides could enhance vaccination, a model melanoma antigen called gp100 was utilized. Vaccination against gp100 has shown significant preclinical activity (van Stipdonk, M. J. B. et al. Design of agonistic altered peptides for the robust induction of CTL directed towards H-2Db in complex with the melanoma-associated epitope gp100. Cancer research 69, 7784-7792, doi:10.1158/0008-5472.CAN-09-1724 (2009)) and has also been used clinically (Schwartzentruber, D. J. et al. gp100 Peptide Vaccine and Interleukin-2 in Patients with Advanced Melanoma. New England Journal of Medicine 364, 2119-2127, doi:10.1056/NEJMoa1012863 (2011)). An altered peptide ligand form of gp100 called EGP (sequence
To test the immunogenicity of ABP-modified peptides, C57BL6/J mice (Jackson Laboratories) were immunized with 5 nmol either ABP-G4S-EGP, ABP-PEG2000-EGP, or unmodified EGP peptide. Vaccines were formulated with 25 ug c-di-GMP (Invivogen) for adjuvant in 100 uL total volume (with sterile saline as diluent). Mice were primed on day 0, boosted on day 14, and tetramer staining was performed on day 21 to assess T cell priming in peripheral blood. (FIG. 5). Briefly, blood was isolated retro-orbitally, subjected to lysis to remove red blood cells, and incubated with tetramer (H-2Db gp100, MBL) at room temperature for 30 minutes, followed by surface staining for CD8 and CD44. DAPI was included as a viability marker, and cells were run on the LSR Fortessa (BD Biosciences). Responses were quantified as the percentage CD44^hi tetramer+ of total live CD8+ T cells. […] (FIG. 6).

In the case of “AVGALEGPRNQDWLGVPRQL (Synthetic EGP long peptide) [unmodified EGP peptide, altered peptide ligand form of melanoma antigen gp100]”, the “affinity for MHC relative to native form (EGS)” value in experiment [1] is listed as “enhanced affinity for MHC over the native form”. In addition, the “percentage CD44hi tetramer+ of total live CD8+ T cells” value in experiment [2] came to 1.45%. For the same sequence, the “response compared with background in unimmunized mice” value in experiment [2] (day 21 tetramer staining, background 0.82%) was “not statistically different from background”.
Take “DICLPRWGCLWGGGGSAVGALEGPRNQDWLGVPRQL [ABP-G4S-EGP]”: the “percentage CD44hi tetramer+ of total live CD8+ T cells” value in experiment [2] came out at 5.56%. In addition, the “fold higher response than unmodified peptide” value in experiment [2] (CD44hi tetramer+ of live CD8+ T cells, day 21, relative to unmodified EGP peptide) was “approximately 4 fold”.
